Assay results taken from patent US20240325339A1, “MELATONIN AGONIST TREATMENT” (Vanda Pharmaceuticals Inc., priority 2006, published 2024).
Entries after “also recorded” stand apart in the source; their conditions may differ.

What was measured:
healthy volunteers [1] = experiment: Example 1 clinical trial, 5-hour advance in bedtime: dim light melatonin onset (DLMO) from plasma melatonin; type: in vivo, human
Method: (§1) A clinical trial was conducted to assess the safety of MA-1 as well as to determine the ability of MA-1 to shift the sleep/wake cycle following a 5-hour advance in bedtime. The study was a randomized, double-blind, parallel group, placebo-controlled study. It consisted of a 2-4-week outpatient screening period followed by an 8-day inpatient stay. After acclimating to the sleep lab, bedtime was advanced by 5 hours. The primary objectives of this study were to investigate the exposure-response to MA-1 on advancement of circadian release of endogenous melatonin rhythm as measured by dim light melatonin onset (DLMO, a biomarker of the sleep-wake cycle), to investigate the exposure-response to MA-1 on mean sleep efficiency parameters as measured by PSG, to investigate the exposure-response to MA-1 on objective neurobehavioral performance lapses during scheduled work-time as measured by computerized continuous performance testing, and to assess the safety and tolerability of MA-1. Forty-five healthy volunteers, men and women aged 18-50, were enrolled into this study. Thirty-nine subjects were randomized.
The study was designed to assess the safety and efficacy of four oral doses of MA-1 (10 mg, 20 mg, 50 mg and 100 mg) compared to matching placebo on circadian phase shift, sleep parameters during the major sleep episode, and subject alertness. After written informed consent was signed, subjects that met the inclusion/exclusion criteria at screening and baseline were enrolled into the 8-day in-patient portion of the study. All in-patient assessments were conducted in a time-isolation sleep lab in which no time cues were available to subjects. During the first three nights, subjects were given placebo 30 minutes prior to bedtime (11:00 PM) in a single-blind fashion. Baseline assessments for the efficacy parameters were measured during this period. At 5:00 PM on day 3, subjects started a 19 hour Pre-constant posture (CP) segment during which time the subjects remained seated in a semi-recumbent position and blood samples were collected approximately every hour from 7:00 AM to 12:00 PM. The purpose of the pre-CP segment is to provide a measure of each subject's circadian phase before the start of the night shift segment. On day 4, subjects were randomized to once daily treatment in one of the five treatment groups. In addition, subject sleep-wake routines were advanced 5 hours, such that subjects were required to sleep from approximately 6:00 PM-2:00 AM. […] Safety was assessed throughout the study, at the end of study (EOS) visit on day 8, and at the Follow-up visit. […]
To assess circadian sleep-wake cycles in the study, plasma melatonin levels were assessed. […] To assess the effects of MA-1 on the sleep-wake cycles, DLMO was monitored in subjects before and after treatment. […]

healthy volunteers [2] = experiment: Example 1 clinical trial, 5-hour advance in bedtime: polysomnography (sleep efficiency, sleep latency, WASO, sleep architecture); settings: human, in vivo
Method: as §1, with “Thirty-nine subjects were randomized.” left out
The study was designed to assess the safety and efficacy of four oral doses of MA-1 (10 mg, 20 mg, 50 mg and 100 mg) compared to matching placebo on circadian phase shift, sleep parameters during the major sleep episode, and subject alertness. […] Baseline assessments for the efficacy parameters were measured during this period. […]

[3] = Example 1 clinical trial: exposure (Cmax, AUC); type: in vivo, human
Method: as §1
The differences in DLMO25% between the endpoint day (Nights 4, 5 and 6) and baseline (Night 3) were analyzed by comparing pairwise each dose group to placebo using a linear one-way analysis of variance (ANOVA) model using in SAS® (SAS® Institute, Cary, North Carolina). Means were calculated using the LS Means method in SAS®. Standard deviations were calculated using the Statistical Summary function in SAS®. Other statistical tests were also presented in graphics. These included: linear regression of response vs. exposure (dose, AUC, or Cmax), Kendall-tau nonparametric regression, and Spearman nonparametric regression.

[4] = system: healthy male and female subjects with induced transient insomnia; experiment: Example 2 study of single oral doses in induced transient insomnia: polysomnography; type: in vivo, human
Method: (§2) A multi-center, randomized, double-blind, placebo-controlled, parallel-group study was conducted to investigate the efficacy and safety of single oral doses of VEC-162 (20, 50, and 100 mg) and matching placebo in healthy male and female subjects with induced transient insomnia. Approximately four hundred subjects were randomized in approximately a 1:1:1:1 ratio to the treatment groups.
(§3) In general, a screening period began 14 to 35 days prior to the start of the evaluation period, which was Day 1. Prior to Day 1, subjects were asked to increase their sleep time to 9 hours per night. Drug, or placebo, was administered on Night 1, approximately 0.5 hour prior to lights off.
The primary efficacy variable was LPS. LPS is defined as the length of time elapsed between lights off and onset of persistent sleep. In this trial, persistent sleep is defined as the point at which 10 minutes of uninterrupted sleep has begun. Sleep was determined on the basis of polysomnography (PSG).
Secondary efficacy parameters included the following: • Wake After Sleep Onset (WASO): WASO is defined as the time spent awake between onset of sleep and Lights On during Night 1, determined by PSG. • Latency to Non-Awake (LNA): LNA is defined as the number of minutes to reach any stage of sleep. • Total Sleep Time (TST): TST is defined as the number of minutes spent asleep during the entire time in bed.

[5] = system: healthy male and female subjects with induced transient insomnia; experiment: Example 2 study: tolerability; type: in vivo, human; settings: single oral doses 20, 50 and 100 mg
Method: as §2, §3

Solubility = type: physicochemical
healthy volunteers [6] = settings: cited from earlier work
[7] = system: elderly patients with primary insomnia; settings: 28-day Phase II study; cited from earlier work
[8] = 50 mg; cited from earlier work
[9] = system: preclinical models of acute phase-shifting and chronic re-entrainment; settings: cited from earlier work
MT1R melatonin receptor = MT1R melatonin receptor (Homo sapiens, UniProt P48039); settings: cited from earlier work
Chain of MT1R melatonin receptor (P48039 whole entry): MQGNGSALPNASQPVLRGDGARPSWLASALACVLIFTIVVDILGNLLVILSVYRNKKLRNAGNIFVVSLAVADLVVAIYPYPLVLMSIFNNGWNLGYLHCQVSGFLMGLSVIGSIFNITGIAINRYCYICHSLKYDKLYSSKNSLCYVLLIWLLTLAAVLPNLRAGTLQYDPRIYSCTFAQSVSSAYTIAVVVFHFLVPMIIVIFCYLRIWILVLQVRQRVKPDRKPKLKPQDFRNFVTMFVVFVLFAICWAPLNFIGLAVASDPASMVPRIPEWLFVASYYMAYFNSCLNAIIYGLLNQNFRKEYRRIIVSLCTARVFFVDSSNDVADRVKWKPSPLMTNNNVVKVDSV

MT2R melatonin receptor = target: T1, MT2R melatonin receptor (Homo sapiens, UniProt P49286); settings: cited from earlier work
T1 sequence (P49286 1-362): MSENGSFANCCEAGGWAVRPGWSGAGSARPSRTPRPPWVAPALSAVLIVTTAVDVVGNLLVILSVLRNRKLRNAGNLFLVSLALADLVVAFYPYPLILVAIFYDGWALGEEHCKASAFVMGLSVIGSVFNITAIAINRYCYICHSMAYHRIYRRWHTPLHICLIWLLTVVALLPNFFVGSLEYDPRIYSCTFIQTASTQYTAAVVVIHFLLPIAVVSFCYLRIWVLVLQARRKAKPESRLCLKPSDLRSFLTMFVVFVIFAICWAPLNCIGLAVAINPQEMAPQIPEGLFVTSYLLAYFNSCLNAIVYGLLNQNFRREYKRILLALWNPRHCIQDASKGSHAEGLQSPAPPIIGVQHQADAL

## CCC(=O)NC[C@@H]1C[C@H]1c1cccc2c1CCO2 [MA-1, (1R-trans)-N-[[2-(2,3-dihydro-4-benzofuranyl)cyclopropyl]methyl]propanamide]
Healthy volunteers [1]; 10 mg oral, N = 8, mean
  Change in DLMO25%, LOQ5 between Night 4 and Night 3: 0.18 h
Healthy volunteers [1]; 20 mg oral, N = 7, mean
  Change in DLMO25%, LOQ5 between Night 4 and Night 3: -1.14 h
Healthy volunteers [1]; 50 mg oral, N = 4, mean
  Change in DLMO25%, LOQ5 between Night 4 and Night 3: -0.50 h
Healthy volunteers [1]; 100 mg oral, N = 5, mean ± SD
  Change in DLMO25%, LOQ5 between Night 4 and Night 3: -2.74 ± 1.95 h
Healthy volunteers [2]
  Percentage of time in each sleep stage between Night 4 and Night 2: did not change
[3]; human, in vivo
  Exposure levels: effect of covariates: not affected by age, weight, height, gender, creatinine clearance, or ALT baseline levels
[3]; oral doses 10-100 mg
  AUC versus dose: increased approximately proportional to dose
  Cmax versus dose: increased in a manner approximately proportional to the dose
[4]; 20 mg single oral dose
  Efficacy compared with 100 mg: comparable or superior to 100 mg
[4]; 50 mg single oral dose
  Efficacy compared with 100 mg: more efficacious than 100 mg
[5]
  Tolerability: well-tolerated at all doses
Solubility
  Effect of pH on aqueous solubility: practically unaffected by pH
Healthy volunteers [6]; multiple doses up to 150 mg, up to 28 days
  Tolerability, multiple doses: safety and tolerability of MA-1 at doses up to 150 mg has been demonstrated; also recorded: well-tolerated
Healthy volunteers [6]; single oral doses up to 300 mg, healthy volunteers
  Tolerability, single doses: safe and well tolerated
[7]
  Sleep latency and number of nocturnal awakenings versus placebo: did not differentiate from placebo
[8]
  Shift of circadian rhythms: consistently shifted circadian rhythms
[9]
  Chronobiotic activity: potent chronobiotic activity
MT1R melatonin receptor
  Agonist activity at MT1R: specific and potent agonist
MT2R melatonin receptor
  Agonist activity at MT2R: specific and potent agonist
